# Calls of active or inactive are those of the source.
# Columns and labels:
# [1] = molecular target: Cytochrome P450 2D6 (Homo sapiens, UniProt P10635);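 further: CYP2D6 member of a cytochrome P450 panel assay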
# [2] = molecular target: T1, Cytochrome P450 1A2 (Homo sapiens, UniProt P05177);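 further: PubChem cytochrome P450 panel assay, CYP1A2 panel member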
# T1 sequence (P05177 whole entry): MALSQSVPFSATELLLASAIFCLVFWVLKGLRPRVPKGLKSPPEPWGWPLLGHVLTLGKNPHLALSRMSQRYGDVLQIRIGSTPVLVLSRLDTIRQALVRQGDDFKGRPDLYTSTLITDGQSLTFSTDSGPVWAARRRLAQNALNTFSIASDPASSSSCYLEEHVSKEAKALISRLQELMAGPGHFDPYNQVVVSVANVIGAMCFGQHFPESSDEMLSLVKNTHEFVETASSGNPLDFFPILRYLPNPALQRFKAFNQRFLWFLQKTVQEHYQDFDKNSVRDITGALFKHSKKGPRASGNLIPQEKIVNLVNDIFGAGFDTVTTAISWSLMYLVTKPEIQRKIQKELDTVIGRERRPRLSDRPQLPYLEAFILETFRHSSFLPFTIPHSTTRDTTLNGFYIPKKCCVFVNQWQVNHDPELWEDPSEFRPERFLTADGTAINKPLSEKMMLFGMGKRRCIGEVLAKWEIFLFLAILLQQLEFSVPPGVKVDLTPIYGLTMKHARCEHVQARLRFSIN
# [3] = molecular target: Cytochrome P450 3A4 (Homo sapiens, UniProt P08684);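 further: CYP3A4 tested as one member of a cytochrome P450 panel screen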
# [4] = C. albicans growth with fluconazole, confirmation, fluorescence, retest (AID 2467); assay type: functional, cell-based
# [5] = system: Streptococcus sp. 'group A'; assay: growth inhibition of control SK(-) GAS strain, dose response, counter-screen for streptokinase expression inhibitor project, luminescence, kanamycin, BacTiterGlo, confirmation (AID 1900); assay type: functional, organism-based
# [6] = molecular target: T2, Streptokinase A (Streptococcus pyogenes serotype M1, UniProt P10520); assay: S. pyogenes streptokinase expression inhibitors, potency, dose response, plasminogen activation absorbance, OD405 (AID 1914); assay type: functional, Streptococcus pyogenes M1 GAS;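 further: secreted streptokinase activity via plasminogen activation per viability signal from cell pellet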
# T2 sequence (P10520 whole entry): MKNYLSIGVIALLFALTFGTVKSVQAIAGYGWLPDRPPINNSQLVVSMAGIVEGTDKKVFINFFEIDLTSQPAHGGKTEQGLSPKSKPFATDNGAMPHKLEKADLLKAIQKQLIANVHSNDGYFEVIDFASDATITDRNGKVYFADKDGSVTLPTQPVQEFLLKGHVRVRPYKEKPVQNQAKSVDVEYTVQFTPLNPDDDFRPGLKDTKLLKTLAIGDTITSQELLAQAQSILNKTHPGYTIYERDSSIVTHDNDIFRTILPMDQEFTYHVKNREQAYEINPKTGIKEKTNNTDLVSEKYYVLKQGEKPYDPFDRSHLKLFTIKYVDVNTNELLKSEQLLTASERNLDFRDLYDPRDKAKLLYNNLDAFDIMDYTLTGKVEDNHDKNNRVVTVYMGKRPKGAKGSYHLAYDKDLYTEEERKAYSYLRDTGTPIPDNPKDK
# [7] = NIH-3T3 fibroblast cytotoxicity, dose response, cytotoxicity control, cell-based, fluorescence, Alamar Blue, secondary assay (AID 2327); assay type: functional;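 further: NIH-3T3 mouse fibroblasts cultured with fluconazole at 8 µg/mL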
# [8] = system: INS1; assay: beta cell apoptosis inhibitors, cytokine rescue, dose response, luminescence, retest (AID 449756); assay type: functional, cell-based; details: Rattus norvegicus;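 further: cell death triggered by IL-1 beta plus TNF-alpha plus IFN-gamma mixture; protective hits raise ATP signal compared with cytokine alone wells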
# [9] = system: Streptococcus; assay: Group A Streptococcus viability loss, dose response, counter-screen for streptokinase expression inhibitor project, luminescence, BacTiterGlo (AID 1915); assay type: functional, organism-based;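 further: potency for reduction of bacterial viability or growth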
# [10] = molecular target: Cytochrome P450 2C9 (Homo sapiens, UniProt P11712)
# [11] = molecular target: Cytochrome P450 2C19 (Homo sapiens, UniProt P33261); assay: Cytochrome panel assay with activity outcomes. Panel member name: p450-cyp2c19 Compounds with AC50 equal or less than 10 uM are considered active; assay type: functional; details: read-out: AC50
# Chain of Cytochrome P450 2C19 (P33261 whole entry): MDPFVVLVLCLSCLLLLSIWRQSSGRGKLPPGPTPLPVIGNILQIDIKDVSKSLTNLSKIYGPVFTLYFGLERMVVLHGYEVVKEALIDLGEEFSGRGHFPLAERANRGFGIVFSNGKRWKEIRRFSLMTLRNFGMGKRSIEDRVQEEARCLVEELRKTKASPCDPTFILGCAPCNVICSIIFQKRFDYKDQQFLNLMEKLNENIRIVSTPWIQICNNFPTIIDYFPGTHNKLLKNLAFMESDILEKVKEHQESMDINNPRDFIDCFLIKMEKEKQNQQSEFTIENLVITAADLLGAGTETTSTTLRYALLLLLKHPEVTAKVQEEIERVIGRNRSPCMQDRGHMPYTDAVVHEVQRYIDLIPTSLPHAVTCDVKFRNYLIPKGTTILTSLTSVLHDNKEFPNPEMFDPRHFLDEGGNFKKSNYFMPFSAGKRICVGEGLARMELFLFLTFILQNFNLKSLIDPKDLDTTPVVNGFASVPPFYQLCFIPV
# Chain of Cytochrome P450 2C9 (P11712 whole entry): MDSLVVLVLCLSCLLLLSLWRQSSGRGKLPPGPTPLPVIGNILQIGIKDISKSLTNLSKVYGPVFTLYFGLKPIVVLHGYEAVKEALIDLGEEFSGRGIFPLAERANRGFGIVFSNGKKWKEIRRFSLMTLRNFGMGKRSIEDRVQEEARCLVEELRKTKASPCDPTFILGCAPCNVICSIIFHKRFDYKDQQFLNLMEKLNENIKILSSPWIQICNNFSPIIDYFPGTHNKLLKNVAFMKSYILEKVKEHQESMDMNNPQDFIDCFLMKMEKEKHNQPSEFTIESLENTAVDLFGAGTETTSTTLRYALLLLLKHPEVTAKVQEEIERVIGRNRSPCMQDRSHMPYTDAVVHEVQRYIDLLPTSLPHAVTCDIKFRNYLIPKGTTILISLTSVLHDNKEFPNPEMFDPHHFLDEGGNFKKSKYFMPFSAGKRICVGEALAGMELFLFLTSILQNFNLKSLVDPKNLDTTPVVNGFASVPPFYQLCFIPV
# Chain of Cytochrome P450 2D6 (P10635 whole entry): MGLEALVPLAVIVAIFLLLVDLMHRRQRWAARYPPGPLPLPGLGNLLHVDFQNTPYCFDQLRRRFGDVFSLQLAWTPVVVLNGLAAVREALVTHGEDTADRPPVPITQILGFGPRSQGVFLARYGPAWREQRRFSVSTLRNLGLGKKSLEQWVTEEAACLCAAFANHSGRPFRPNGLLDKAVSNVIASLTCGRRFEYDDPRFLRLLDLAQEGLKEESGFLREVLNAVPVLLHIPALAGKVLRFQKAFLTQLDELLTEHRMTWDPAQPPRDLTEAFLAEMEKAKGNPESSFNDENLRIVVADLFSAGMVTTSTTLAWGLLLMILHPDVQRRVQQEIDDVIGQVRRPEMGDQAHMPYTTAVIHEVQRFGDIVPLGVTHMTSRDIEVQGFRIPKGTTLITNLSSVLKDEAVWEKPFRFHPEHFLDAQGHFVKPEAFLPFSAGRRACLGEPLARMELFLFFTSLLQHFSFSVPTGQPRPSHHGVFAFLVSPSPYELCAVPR
# Chain of Cytochrome P450 3A4 (P08684 whole entry): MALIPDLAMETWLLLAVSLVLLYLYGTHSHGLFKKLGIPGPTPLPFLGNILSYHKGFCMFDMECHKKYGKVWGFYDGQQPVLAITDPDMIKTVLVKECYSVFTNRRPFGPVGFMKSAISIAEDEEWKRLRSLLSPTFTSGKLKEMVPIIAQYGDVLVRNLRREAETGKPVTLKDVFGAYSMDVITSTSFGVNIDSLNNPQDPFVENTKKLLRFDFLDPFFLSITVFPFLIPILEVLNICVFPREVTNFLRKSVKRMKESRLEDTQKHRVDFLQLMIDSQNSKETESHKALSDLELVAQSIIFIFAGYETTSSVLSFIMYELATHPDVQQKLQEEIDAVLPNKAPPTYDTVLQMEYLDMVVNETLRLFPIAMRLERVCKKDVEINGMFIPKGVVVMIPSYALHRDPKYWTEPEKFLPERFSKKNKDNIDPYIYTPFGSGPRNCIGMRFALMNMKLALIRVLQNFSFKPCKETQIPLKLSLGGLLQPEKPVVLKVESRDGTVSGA
smiles,measurement,setting,value
CS(=O)(=O)Nc1cccc(-c2nc(Nc3ccc(F)cc3)c3ccccc3n2)c1,AC50,[1],39.8 µM (inconclusive)
C#C[C@@]1(O)CC[C@@H]2[C@@H]3CCC4=C(CCC(=O)C4)[C@H]3CC[C@]21C,AC50,[1],15.8 µM (inconclusive)
same,AC50,[2],12.6 µM (inconclusive)
Cc1cnc(CNc2ncnc3ccc(-c4ccoc4)cc23)cn1,AC50,[1],39.8 µM (inconclusive)
CNc1nc(-c2ccccc2C)nc2ccccc12,AC50,[1],31.6 µM (inconclusive)
same,AC50,[3],20 µM (inconclusive)
CC(C)c1ccccc1-n1c(SCC(=O)N2CCN(c3ccccc3)CC2)nnc1-c1cccnc1,AC50,[1],15.8 µM (inconclusive)
CCC1=NN(C(=O)c2ccccc2O)C(O)(c2ccccc2)C1 (stereo not drawn),EC50,[4],0.788 µM (active)
same,EC50,[5],2.58 µM (active)
same,EC50,[6],> 150 µM (not active)
same,EC50,[7],> 160 µM (inactive)
same,AC50,[8],3.72 µM (active)
same,EC50,[9],26.7 µM (active)
O=C(CCC(=O)c1cccs1)OCC(=O)N1CCN(C(=O)c2ccco2)CC1,AC50,[1],39.8 µM (inconclusive)
same,AC50,[10],11.2 µM (inconclusive)
c1ccc(-c2ccc(N3CCCC4(CCNCC4)C3)cc2)cc1,AC50,[1],20 µM (inconclusive)
CCOc1nnc(C)c2c(C)n(-c3ccc(Cl)cc3)nc12,AC50,[1],25.1 µM (inconclusive)
same,AC50,[11],31.6 µM (inconclusive)
same,AC50,[10],25.1 µM (inconclusive)
CC(C)Cn1cnc2c(SCc3ccc(Cl)cc3Cl)nc(N)nc21,AC50,[1],7.94 µM (inconclusive)
same,AC50,[10],7.94 µM (inconclusive)
same,AC50,[2],1.26 µM (inconclusive)
C=CCn1cc(Cl)c(=O)n(CC=C)c1=O,AC50,[1],0.562 µM (inconclusive)
same,AC50,[2],14.1 µM (inconclusive)
same,AC50,[3],25.1 µM (inconclusive)
CCNC(=O)O/N=C(\C)c1sc(-c2ccccc2)nc1C,AC50,[1],20 µM (inconclusive)
Cc1c(/N=C/c2ccco2)n(Cc2ccccc2)c2ccccc12,AC50,[1],4.47 µM (inconclusive)
same,AC50,[11],2.82 µM (inconclusive)
CC(C)=CCc1c2c(c(O)c3c(=O)c4c(oc13)-c1cc(O)c(O)cc1OC4C=C(C)C)C=CC(C)(C)O2 (stereo not drawn) [CYCLOHETERPHYLLIN],EC50,[4],> 38 µM (not active)
same,EC50,[5],2.95 µM (active)
same,EC50,[6],> 150 µM (not active)
same,EC50,[7],16.5 µM (inconclusive)
same,EC50,[9],4.01 µM (active)
